Measurements as given in publication PMC5433008 (BMC Neuroscience, 2017).

Tested on: NMDA-evoked currents in cultured rat embryonic hippocampal neurons (NMDAr)
Details: 500 µM

In the case of TKRSSRAFRE [EAR7], the “inhibitory action on NMDA-evoked currents (control peptide)” value is reported as “No inhibitory action”.
